# Measurements published in EP0155871A1, “Compounds possessing inhibiting properties in the lignin formation in plants and process for the reduction of their lignin content” (Etablissement Public dit: CENTRE NATIONAL DE LA RECHERCHE …, priority 1984, dated 1985).
# Read-outs that look alike come from different tables or passages of the source.
# Tests used:
# Format in all cases: biochemical
# CAD de peuplier [1] = biological target: T1, CAD de peuplier (Populus deltoides, UniProt P31657); assay: in vitro inhibition of isolated poplar CAD
# T1 construct: la CAD de peuplier isolée selon la méthode deSARNI et al; from tissue
# T1 sequence (P31657 1-357): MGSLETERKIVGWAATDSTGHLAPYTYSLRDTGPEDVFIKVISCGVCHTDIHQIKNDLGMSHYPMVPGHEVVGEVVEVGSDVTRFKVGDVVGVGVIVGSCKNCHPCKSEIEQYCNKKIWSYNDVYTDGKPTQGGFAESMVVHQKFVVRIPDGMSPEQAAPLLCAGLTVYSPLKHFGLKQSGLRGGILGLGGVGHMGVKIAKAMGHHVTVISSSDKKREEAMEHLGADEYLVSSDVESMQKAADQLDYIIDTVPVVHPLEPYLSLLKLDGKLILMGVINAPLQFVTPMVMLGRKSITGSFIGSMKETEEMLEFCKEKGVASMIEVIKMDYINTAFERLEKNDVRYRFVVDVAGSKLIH
# From the text: On rapporte dans le tableau suivant les résultats obtenus concernant l'effet mesuré in vitro d'inhibiteurs selon l'invention à différentes concentrations vis-à-vis de la CAD de peuplier isolée selon la méthode deSARNI et al, dans, EUROP JOURNAL OF BIOCHEMISTRY,139, P.259-265, 1984.
# Les mesures des trois derniers résultats ont été réalisées dans le sens physiologique c'est-à-dire en suivant la réduction de l'aldéhyde coniférylique(oxydation du […] mesurée à 340 nm).
# Cette inhibition mesurée in vitro dans le sens physiologique (pH 6,5) est 10 à 15 fois plus importante que dans le sens inverse, c'es-t-à-dire alcool→ aldéhyde (pH 8,8).
# CAD de peuplier [2] = biological target: T1, CAD de peuplier; assay: in vitro inhibition of isolated poplar CAD; conditions: 0,250mM; sens physiologique, réduction de l'aldéhyde coniférylique, 340 nm, pH 6,5; read-out: inhibition à 0,250mM
# CAD = biological target: T2, CAD (Populus deltoides, UniProt P31657); assay: reversibility of CAD inhibition by dialysis of the enzyme-inhibitor mixture; conditions: 2 mM; dialysis against tampon tris/HCl 0,1 M, pH 7,5, 14 heures, 4°C
# T2 construct: from tissue
# T2 sequence (P31657 1-357): T1 sequence (P31657 1-357)
# From the text: L'étude des modalités d'action des inhibiteurs de l'invention montre la réversibilité de leur action.
# [3] = tested on: éthanol déshydrogénase (EDH); assay: action on plant zinc enzyme EDH
# From the text: (§1) L'étude de leur action sur différentes enzymes a également été réalisée.
# (§2) On a étudié ainsi l'action d'inhibiteurs selon l'invention sur des enzymes du métabolisme phénolique telles que la phénylalanine ammonialyase (PAL), la catéchol O-méthyl transférase (OMT), l'hydroxycinnamate : CoA ligase (HCl) et la cinnamoyl : CoA réductase (CCR), et des enzymes végétales à zinc, telles que l'éthanol déshydrogénase (EDH), la superoxyde dismutase (SOD) et l'anhydrase carbonique (CA).
# [4] = tested on: superoxyde dismutase (SOD); assay: action on plant zinc enzyme SOD
# From the text: as §1, §2
# [5] = tested on: anhydrase carbonique (CA); assay: action on plant zinc enzyme carbonic anhydrase
# From the text: as §1, §2
# [6] = tested on: phénylalanine ammonialyase (PAL); assay: action on phenolic metabolism enzyme PAL
# From the text: as §1, §2
# [7] = tested on: cinnamoyl : CoA réductase (CCR); assay: action on phenolic metabolism enzyme CCR
# From the text: as §1, §2
# [8] = 2mM, not among the results measured in the physiological direction, read-out: Inhibition % à 2mM
smiles,measurement,setting,value
"COc1cc(C=CC(=O)OC(C)(C)C)cc(OC)c1O [STB, Sinapate de tertiobutyle]",inhibition at 2000 µM,CAD de peuplier [1]; [8],55%
COc1cc(C=CC(=O)N2CCSC2=S)ccc1O [FMT],inhibition at 250 µM,CAD de peuplier [2],100%
"COc1cc(C=CC(=O)OC(C)(C)C)ccc1O [FTB, férulate de tertiobutyle]",inhibition at 2000 µM,CAD de peuplier [1]; [8],75%
same,inhibition at 2000 µM,"CAD de peuplier [1]; text restatement of the table value (2mM), read-out: taux d'inhibition",~75%
same,activité de CAD après dialyse,CAD,restitution totale de l'activité CAD
same,action sur l'EDH,[3],n'agit pas
same,action sur la SOD,[4],n'agit pas
same,action sur l'AC,[5],n'agit pas
same,action vis à vis de la PAL,[6],actif
same,action vis à vis de la CCR,[7],actif
same,inhibition at 250 µM,CAD de peuplier [2],100%
"CC(C)(C)OC(=O)C=Cc1ccc(O)cc1 [PCB, p-Coumarate de tertiobutyle]",inhibition at 2000 µM,CAD de peuplier [1]; [8],40%
